Laboratory results: patent US8057829B2, “Methods for repelling insects using sesquiterpene hydrocarbons and their derivatives” (Sterling International Inc., priority 2008, dated 2011)

What was measured:
houseflies = test: Laboratory sticky trap bioassay of spatial repellency with egg powder attractant; assay type: in vivo, housefly (Musca domestica)
Procedure: Laboratory bioassay tests were carried out to investigate the efficacy of some of the EAD-active compounds described above to act as spatial repellents against several insects. The procedure for the bioassay tests is described in Example 2 below. Briefly stated, the bioassay included using egg powder (EP) as an attractant for flies, while the compound whose insect repellency was being tested was placed in proximity to the egg powder. In FIGS. 11-13, the bioassay was carried out on houseflies using devices known by the designation Trécé Pherocon® VI sticky traps.
The following lab bioassay tests were employed to illustrate the efficacy of the compounds to effectively act as spatial repellents for flies. Three sets of tests were conducted in a fly testing room (23° C., 70% RH, and 12/12 (L/D) light regime illuminated by fluorescent lights). Two sets of tests were carried out using Trécé Pherocon® VI traps with sticky inserts, which were set up on poles evenly spaced on a rotating table. The traps were ca. 1 m above a table surface, and ca. 1 m apart from each other. Two grams of egg powder in a white cap (4 cm in diameter, 0.5 cm in height) used as an attractant was put on the center of the sticky insert in the sticky trap. The potential repellent candidate chemicals were loaded into polyethylene bags, and were hung under the inner roof of the traps, 1-1.5 cm above the egg powder attractant. A control had the empty white cap and blank polyethylene bag, while the positive control had only the egg powder and an empty polyethylene bag. The test table was rotated 1.5 r.p.h. […] About 200-300 houseflies (2-3 days old) were released into the testing room for each test. Tests were normally run from 8:00 am to 5:00 pm, and the numbers of houseflies caught in each trap were counted after each test. The results of these tests are shown in FIGS. 11-13 and described above.

[1] = system: antennae of Musca domestica, Lucillia sericata, Sarcophaga sp., Muscina stabulans, Culex pipiens, Aedes increpitus; test: GC-EAD responses of several flies and two mosquitoes to a synthetic mixture; conditions: about 100 ng of each compound, FIG. 6
Procedure: The GC-EAD responses of several species of flies and two species of mosquito antennae were tested on a synthetic mixture of 1-octen-3-ol, linalool, two representative sesquiterpene hydrocarbons, β-caryophyllene and α-humulene, ZE-nepetalactone, EZ-nepetalactone, and two known insect repellents, DEET, and SS220, with about 100 ng of each compound in the mixture. DEET and SS220 are used as positive controls in the experiment. The compound 1-octen-3-ol is a known attractant for the insects and is also used as a positive control. The insects tested are species of Musca domestica, Lucillia sericata, Sarcophaga sp., Muscina stabulans, Culex pipiens, and Aedes increpitus.
The following procedures were employed to test the EAD response of an insect antenna to a repellent compound. The GC-EAD technique provides an efficient tool for screening behaviorally active repellents. Several synthetic mixtures of potential insect repellent candidates, mostly sesquiterpene hydrocarbons and derivatives, were analyzed in splitless mode using a Varian CP-3800 GC equipped with a polar column (Innowax; 1.0 μm film thickness, 30 m×0.53 mm ID; J & W Scientific), and a 1:1 effluent splitter that allowed simultaneous flame ionization detection (FID) and EAD of the separated volatile compounds. Helium was used as the carrier gas, and the injector temperature was 220° C. The column temperature was 50° C. for 2 min, rising to 240° C. at 10° C./min, then held for 10 min. The outlet for the EAD was held in a humidified air stream flowing at 0.5 liter/min. over an antennal preparation. A glass capillary indifferent electrode filled with Beadle-Ephrussi Ringer, and grounded via a silver wire, was inserted into the severed insect's head with the antennae. A similar recording electrode connected to a high-impedance DC amplifier with automatic baseline drift compensation was placed in contact with the distal end of one antenna (Zhang et al., Chemoecology, 10:69-80 (2000)). The antennal signals were stored and analyzed on a PC equipped with a serial IDAC interface box and the program EAD ver. […]

[2] = system: male false stable fly Muscina stabulans antenna and female mosquito Aedes (Ochlerotatus) increpitus Dyar antenna; test: GC-EAD responses of false stable fly and Aedes increpitus to a synthetic mixture; conditions: about 100 ng of each compound, FIG. 5
Procedure: The GC-EAD responses of the male false stable fly Muscina stabulans antenna and the female mosquito Aedes (Ochlerotatus) increpitus Dyar antenna were tested on a synthetic mixture of linalool and two representative sesquiterpene hydrocarbons, β-caryophyllene and α-humulene, and one sesquiterpene oxide, β-caryophyllene oxide, with about 100 ng of each compound in the mixture.
(§1) The following procedures were employed to test the EAD response of an insect antenna to a repellent compound. The GC-EAD technique provides an efficient tool for screening behaviorally active repellents. Several synthetic mixtures of potential insect repellent candidates, mostly sesquiterpene hydrocarbons and derivatives, were analyzed in splitless mode using a Varian CP-3800 GC equipped with a polar column (Innowax; 1.0 μm film thickness, 30 m×0.53 mm ID; J & W Scientific), and a 1:1 effluent splitter that allowed simultaneous flame ionization detection (FID) and EAD of the separated volatile compounds. Helium was used as the carrier gas, and the injector temperature was 220° C. The column temperature was 50° C. for 2 min, rising to 240° C. at 10° C./min, then held for 10 min. The outlet for the EAD was held in a humidified air stream flowing at 0.5 liter/min. over an antennal preparation. A glass capillary indifferent electrode filled with Beadle-Ephrussi Ringer, and grounded via a silver wire, was inserted into the severed insect's head with the antennae. A similar recording electrode connected to a high-impedance DC amplifier with automatic baseline drift compensation was placed in contact with the distal end of one antenna (Zhang et al., Chemoecology, 10:69-80 (2000)). The antennal signals were stored and analyzed on a PC equipped with a serial IDAC interface box and the program EAD ver. 2.5 (Syntech, Hilversum, The Netherlands). The compound 1-octen-3-ol (known attractant for many flies and mosquitoes) was included in most of the synthetic mixtures, as a positive control. The results of the experiments are shown in FIGS. 1-10 and described above.

[3] = system: female antennae of sand fly Phlebotomus papatasi and mosquitoes Aedes aegypti, Anopheles gambiae, Anopheles stephensi; test: GC-EAD responses of sand fly and three mosquitoes to synthetic mixtures; conditions: about 100 ng of each compound, on one or more of the sand fly or the mosquitoes, FIGS. 9 and 10
Procedure: The GC-EAD responses of female antennae of the sand fly, Phlebotomus papatasi, and three species of mosquitoes, Aedes aegypti, Anopheles gambiae, and anopheles stephensi were tested on a synthetic mixture of 1-octen-3-ol, six sesquiterpene hydrocarbons including (+)-longipinene, (−)-isolongifolene, (+)-longifolene, β-caryophyllene, isolongifolenone, and α-humulene, and several known insect repellents including ZE-nepetalactone, EZ-nepetalactone, with about 100 ng of each compound in the mixture.
The GC-EAD responses of female antennae of the sand fly, Phlebotomus papatasi, and three species mosquitoes, Aedes aegypti, Anopheles gambiae, and anopheles stephensi were tested on a synthetic mixture of 1-octen-3-ol, linalool, β-caryophyllene oxide, isocaryophyllene, β-caryophyllene, and α-humulene, and DEET, with about 100 ng of each compound in the mixture.
as §1

[4] = system: antennae of housefly, sand fly, and mosquitoes Aedes aegypti, Anopheles gambiae, Anopheles stephensi; test: GC-EAD antennal responses to SPME samples of clove essential oil; conditions: component of clove essential oil SPME sample; response by one or more of the insects; FIG. 1
Procedure: The GC-EAD antennal response of a female housefly (Musca domestica), sand fly (Phlebotomus papatasi), and mosquitoes including the species Aedes aegypti, Anopheles gambiae, and Anopheles stephensi were tested with clove essential oil. FIG. 1 is a simultaneous recording of GC flame ionization detection (FID) and electroantennographic detection (EAD) of the insect antennae to solid phase microextraction (SPME: CAR/PDMS) samples of clove essential oil in a 20 ml glass vial for 20 sec.
as §1, with “The results of the experiments are shown in FIGS. 1-10 and described above.” left out

[5] = system: housefly (Musca domestica) antenna; test: GC-EAD antennal response, housefly; conditions: female housefly antenna; synthetic mixture, about 100 ng of each compound; FIG. 3
Text: The sesquiterpene hydrocarbons and their derivatives disclosed herein have been identified as suitable insect repellents by testing via a gas chromatographic-electroantennographic detection (GC-EAD) method as described in Example 1 below. This method can be used to efficiently screen for potentially behaviorally active compounds, including insect repellents, attractants, deterrents, or attraction-inhibitors from complex natural sources or synthetic mixtures.
The GC-EAD responses of the female housefly antenna were tested on a synthetic mixture of 1-octen-3-ol, a known attractant used as a positive control, and representative sesquiterpene hydrocarbons and derivatives, (+)-longipinene, (−)-isolongifolene, (+)-longifolene, β-caryophyllene, α-humulene, and isolongifolenone, with about 100 ng of each compound in the mixture.
The GC-EAD responses of the male housefly antenna were tested on a synthetic mixture of 1-octen-3-ol, and two representative sesquiterpenes, β-caryophyllene and isocaryophyllene, with about 100 ng of each compound in the mixture.
as §1

SMILES: C=CC(C)(O)CCC=C(C)C (stereo not shown) [linalool, 3,7-dimethyl-3-hydroxy-1,6-octadiene]
- number of house flies per trap (houseflies; egg powder attractant plus repellent, FIG. 11, egg powder alone 44): 5.5 house flies per trap
- repellency against houseflies, in words (houseflies; laboratory trap bioassay with egg powder attractant): effective housefly repellents
- GC-EAD antennal activity [1]: active on at least one of the insects tested
- GC-EAD antennal activity [2]: active on at least one of the insects tested
- GC-EAD antennal activity [3]: antennally active

SMILES: C/C1=C\CC/C(C)=C/CC(C)(C)/C=C/C1 [α-humulene]
- GC-EAD antennal activity [1]: active on at least one of the insects tested
- GC-EAD antennal activity [4]: EAD-active
- GC-EAD antennal activity [5]: active
- GC-EAD antennal activity [2]: active on at least one of the insects tested
- GC-EAD antennal activity [3]: antennally active
